Experimental data published in patent publication US7521418B2, “Use of a polyene macrolide antifungal agent in combination with a glycopeptide antibacterial agent” (Theravance, Inc., priority 2003, dated 2009).

Columns and labels:
G. candidum ATCC 62231 = experiment: Checkerboard MIC assay, FICI; type: cell-based, Geotricium candidum; details: combination with Compound 1
Text: (§1) The following assay was used to determine the minimum inhibitory concentration (MIC) and fractional inhibitory concentration index (FICI) for combinations of an antifungal agent and a glycopeptide antibacterial agent. This assay and methods for calculating FICI are well known in the art. See, for example, Eliopoulos, E. G. and R. Moellering, Jr. “Antimicrobial Combinations” in Antibiotics in Laboratory Medicine, edited by V. Lorian, 4th Ed., Williams & Wilkins, Baltimore, MD, pp. 330-396 (1996); […] et al., Antimicrobial Agents and Chemotherapy 47(4):1416-1418 (2003); or […] et al., Antimicrobial Agents and Chemotherapy 46(10):3323-3326 (2002). […] The MIC of the glycopeptide antibacterial agent determined from this experiment was used in FIC calculations. […]

P. boydii ATCC 38283 = experiment: Checkerboard MIC assay, FICI; type: cell-based, Pseudallescheria boydii; details: combination with Compound 1
Text: as §1

| SMILES | FICI (G. candidum ATCC 62231) | FICI (P. boydii ATCC 38283) |
| --- | --- | --- |
| C[C@@H]1[C@H](O)[C@@H](C)/C=C/C=C/C=C/C=C/C=C/C=C/C=C/[C@H](O[C@@H]2O[C@H](C)[C@@H](O)[C@H](N)[C@@H]2O)C[C@@H]2O[C@](O)(C[C@@H](O)C[C@@H](O)[C@H](O)CC[C@@H](O)C[C@@H](O)CC(=O)O[C@H]1C)C[C@H](O)[C@H]2C(=O)O [Amphotericin B] | 0.63 | 0.38 |
| C[C@@H]1[C@H](O)[C@@H](C)/C=C/C=C/CC/C=C/C=C/C=C/C=C/C(O[C@H]2O[C@H](C)[C@@H](O)[C@H](N)[C@@H]2O)CC2O[C@](O)(CC(O)C(O)CCC(O)CC(O)CC(O)CC(=O)O[C@H]1C)CC(O)C2C(=O)O (stereo partly shown) [Nystatin] | 0.31 | 0.38 |
